Legend:
Format in all cases: in vivo
test plants = experiment: Example B1 herbicidal action, post-emergence, overall statement on the test plants; conditions: Example B1 protocol, 1000 g/ha, result in words
Experimental: Seeds of a variety of test species were sown in sterilised standard soil in seed trays each having 96 cells. After cultivation for 8 to 9 days cultivation (post-emergence) under controlled conditions in a climatic chamber (cultivation at 23/17° C., day/night; 13 hours light; 50-60% humidity), the plants were treated with an aqueous spray solution of 1000 mg/l of the active ingredient dissolved in 10% DMSO (dimethyl sulfoxide, CAS RN 67-68-5) as a solvent, equivalent to 1000 g/ha. The plants were grown in the climatic chamber after application at (24/19° C., day/night; 13 hours light; 50-60% humidity) and watered twice daily. After 9 days until the test was evaluated (10=total damage to plant, 0=no damage to plant)

Echinochloa crus-galli [1] = experiment: Example B2 herbicidal action, post-emergence, pots in glasshouse; conditions: 1000 g/ha, evaluated after 13 days, 10=total damage to plant, 0=no damage to plant
Experimental: (§1) Seeds of a variety of test species were sown in standard soil in pots. After cultivation for one day (pre-emergence) or after 8 days cultivation (post-emergence) under controlled conditions in a glasshouse (at 24/16° C., day/night; 14 hours light; 65% humidity), the plants were sprayed with an aqueous spray solution derived from the formulation of the technical active ingredient in acetone/water (50:50) solution containing 0.5% Tween 20 (polyoxyethelyene sorbitan monolaurate, CAS RN 9005-64-5). The test plants were then grown in a glasshouse under controlled conditions in a glasshouse (at 24/16° C., day/night; 14 hours light; 65% humidity) and watered twice daily. After 13 days, the test was evaluated (10=total damage to plant; 0=no damage to plant).

Setaria faberi [2] = experiment: as above; conditions: 1000 g/ha, evaluated after 13 days, 10=total damage to plant, 0=no damage to plant
Experimental: as §1

Ipomea hederaceae [3] = experiment: as above; conditions: 1000 g/ha, evaluated after 13 days, 10=total damage to plant, 0=no damage to plant
Experimental: as §1

Amaranthus retroflexus [4] = experiment: as above; conditions: 1000 g/ha, evaluated after 13 days, 10=total damage to plant, 0=no damage to plant
Experimental: as §1

Solanum nigrum [5] = experiment: as above; conditions: 1000 g/ha, evaluated after 13 days, 10=total damage to plant, 0=no damage to plant
Experimental: as §1

Echinochloa crus-galli [6] = experiment: Example B2 herbicidal action, pre-emergence, pots in glasshouse; conditions: 1000 g/ha, evaluated after 13 days, 10=total damage to plant, 0=no damage to plant
Experimental: as §1

Setaria faberi [7] = experiment: as above; conditions: 1000 g/ha, evaluated after 13 days, 10=total damage to plant, 0=no damage to plant
Experimental: as §1

Ipomea hederaceae [8] = experiment: as above; conditions: 1000 g/ha, evaluated after 13 days, 10=total damage to plant, 0=no damage to plant
Experimental: as §1

Amaranthus retroflexus [9] = experiment: as above; conditions: 1000 g/ha, evaluated after 13 days, 10=total damage to plant, 0=no damage to plant
Experimental: as §1

Solanum nigrum [10] = experiment: as above; conditions: 1000 g/ha, evaluated after 13 days, 10=total damage to plant, 0=no damage to plant
Experimental: as §1

Oc1nc2nccnc2c(O)c1-c1ncc(Cl)cc1Cl [Compound A1, 7-(3,5-dichloro-pyrid-2-yl)-pyrido[2,3-b]pyrazine-6,8-diol]
damage to the test plants (test plants): little or no damage

CCOC(=O)Oc1c(-c2ncc(Cl)cc2Cl)c(=O)[nH]c2nccnc12 [Compound A3, Carbonic acid 7-(3,5-dichloro-pyrid-2-yl)-6-oxo-5,6-dihydro-pyrido[2,3-b]pyrazin-8-yl ester ethyl ester]
damage to the test plants (test plants): little or no damage

CS(=O)(=O)Oc1c(-c2ncc(Cl)cc2Cl)c(=O)[nH]c2nccnc12 [Compound A4, methanesulfonic acid 7-(3,5-dichloro-pyrid-2-yl)-6-oxo-5,6-dihydro-pyrido[2,3-b]pyrazin-8-yl ester]
damage to the test plants (test plants): little or no damage

CC(C)C(=O)Oc1c(-c2ncc(Cl)cc2Cl)c(O)nc2nccnc12 [Compound A5, isobutyric acid 7-(3,5-dichloro-pyrid-2-yl)-6-oxo-5,6-dihydro-pyrido[2,3-b]pyrazin-8-yl ester]
damage to the test plants (test plants): little or no damage

Cn1c(=O)c(-c2c(Cl)cncc2Cl)c(OC(=O)C(C)(C)C)c2nccnc21 [Compound A9, 2,2-Dimethyl-propionic acid 7-(3,5-dichloro-pyrid-4-yl)-5-methyl-6-oxo-5,6-dihydro-pyrido[2,3-b]pyrazin-8-yl ester]
ECHCG, damage to plant (Echinochloa crus-galli [1]): 7 | SETFA, damage to plant (Setaria faberi [2]): 4 | IPOHE, damage to plant (Ipomea hederaceae [3]): 8 | AMARE, damage to plant (Amaranthus retroflexus [4]): 8 | SOLNI, damage to plant (Solanum nigrum [5]): 8 | ECHCG, damage to plant (Echinochloa crus-galli [6]): 5 | SETFA, damage to plant (Setaria faberi [7]): 0 | IPOHE, damage to plant (Ipomea hederaceae [8]): 5 | AMARE, damage to plant (Amaranthus retroflexus [9]): 0 | SOLNI, damage to plant (Solanum nigrum [10]): 1

CCn1c(=O)c(-c2c(Cl)cncc2Cl)c(OC(=O)C(C)(C)C)c2nccnc21 [Compound A10, 2,2-Dimethyl-propionic acid 7-(3,5-dichloro-pyrid-4-yl)-5-ethyl-6-oxo-5,6-dihydro-pyrido[2,3-b]pyrazin-8-yl ester]
ECHCG, damage to plant (Echinochloa crus-galli [1]): 7 | SETFA, damage to plant (Setaria faberi [2]): 6 | IPOHE, damage to plant (Ipomea hederaceae [3]): 8 | AMARE, damage to plant (Amaranthus retroflexus [4]): 9 | SOLNI, damage to plant (Solanum nigrum [5]): 9 | ECHCG, damage to plant (Echinochloa crus-galli [6]): 5 | SETFA, damage to plant (Setaria faberi [7]): 1 | IPOHE, damage to plant (Ipomea hederaceae [8]): 2 | AMARE, damage to plant (Amaranthus retroflexus [9]): 0 | SOLNI, damage to plant (Solanum nigrum [10]): 2

CC(C)(C)C(=O)Oc1c(-c2c(Cl)cncc2Cl)c(=O)n(CC(F)F)c2nccnc12 [Compound A11, 2,2-Dimethyl-propionic acid 7-(3,5-dichloro-pyrid-4-yl)-5-(2,2-difluoro-ethyl)-6-oxo-5,6-dihydro-pyrido[2,3-b]pyrazin-8-yl ester]
ECHCG, damage to plant (Echinochloa crus-galli [1]): 8 | SETFA, damage to plant (Setaria faberi [2]): 8 | IPOHE, damage to plant (Ipomea hederaceae [3]): 8 | AMARE, damage to plant (Amaranthus retroflexus [4]): 9 | SOLNI, damage to plant (Solanum nigrum [5]): 8 | ECHCG, damage to plant (Echinochloa crus-galli [6]): 8 | SETFA, damage to plant (Setaria faberi [7]): 7 | IPOHE, damage to plant (Ipomea hederaceae [8]): 5 | AMARE, damage to plant (Amaranthus retroflexus [9]): 8 | SOLNI, damage to plant (Solanum nigrum [10]): 8

O=c1c(-c2c(Cl)cncc2Cl)c(O)c2nccnc2n1CC(F)F [Compound A12, 7-(3,5-Dichloro-pyrid-4-yl)-5-(2,2-difluoro-ethyl)-8-hydroxy-5H-pyrido[2,3-b]pyrazin-6-one]
ECHCG, damage to plant (Echinochloa crus-galli [1]): 8 | SETFA, damage to plant (Setaria faberi [2]): 8 | IPOHE, damage to plant (Ipomea hederaceae [3]): 9 | AMARE, damage to plant (Amaranthus retroflexus [4]): 9 | SOLNI, damage to plant (Solanum nigrum [5]): 10 | ECHCG, damage to plant (Echinochloa crus-galli [6]): 6 | SETFA, damage to plant (Setaria faberi [7]): 4 | IPOHE, damage to plant (Ipomea hederaceae [8]): 5 | AMARE, damage to plant (Amaranthus retroflexus [9]): 4 | SOLNI, damage to plant (Solanum nigrum [10]): 2

CC(C)(C)C(=O)Oc1c(-c2ccc(Cl)nc2Cl)c(=O)[nH]c2nccnc12 [Compound A14, 2,2-dimethyl-propionic acid 7-(2,6-dichloro-pyrid-3-yl)-6-oxo-5,6-dihydro-pyrido[2,3-b]pyrazin-8-yl ester]
ECHCG, damage to plant (Echinochloa crus-galli [1]): 6 | SETFA, damage to plant (Setaria faberi [2]): 7 | IPOHE, damage to plant (Ipomea hederaceae [3]): 4 | AMARE, damage to plant (Amaranthus retroflexus [4]): 5 | SOLNI, damage to plant (Solanum nigrum [5]): 7 | ECHCG, damage to plant (Echinochloa crus-galli [6]): 4 | SETFA, damage to plant (Setaria faberi [7]): 2 | IPOHE, damage to plant (Ipomea hederaceae [8]): 0 | AMARE, damage to plant (Amaranthus retroflexus [9]): 0 | SOLNI, damage to plant (Solanum nigrum [10]): 0

CC(C)(C)C(=O)Oc1c(-c2c(Cl)ccnc2Cl)c(=O)[nH]c2nccnc12 [Compound A17, 2,2-Dimethyl-propionic acid 7-(2,4-dichloro-pyrid-3-yl)-6-oxo-5,6-dihydro-pyrido[2,3-b]pyrazin-8-yl ester]
damage to the test plants (test plants): little or no damage

O=c1[nH]c2nccnc2c(O)c1-c1ncc(Cl)cc1F [Compound A28]
damage to the test plants (test plants): little or no damage

O=c1[nH]c2nccnc2c(O)c1-c1ncc(C(F)(F)F)cc1Cl [Compound A29]
damage to the test plants (test plants): little or no damage

Cc1nc(Cl)sc1-c1c(O)c2nccnc2[nH]c1=O [Compound B1, 7-(2-chloro-4-methyl-thiazol-5-yl)-8-hydroxy-5H-pyrido[2,3-b]pyrazin-6-one]
damage to the test plants (test plants): little or no damage

Cc1noc(-c2c(OC(=O)C(C)C)c3nccnc3n(C)c2=O)n1 [Compound B6, isobutyric acid 5-methyl-7-(3-methyl-1,2,4-oxadiazol-5-yl)-6-oxo-5,6-dihydro-pyrido[2,3-b]pyrazin-8-yl ester]
damage to the test plants (test plants): little or no damage

CC(C)C(=O)Oc1c(-c2cc(C(F)(F)F)no2)c(=O)[nH]c2nccnc12 [Compound B7, isobutyric acid 6-hydroxy-7-(3-trifluoromethyl-isoxazol-5-yl)-pyrido[2,3-b]pyrazin-8-yl ester]
damage to the test plants (test plants): little or no damage

Cc1cc(-c2c(O)c3nccnc3[nH]c2=O)on1 [Compound B13]
damage to the test plants (test plants): little or no damage

Cc1cc(-c2c(O)c3nccnc3[nH]c2=O)[nH]n1 [Compound B14]
damage to the test plants (test plants): little or no damage

O=c1[nH]c2nccnc2c(O)c1-c1ccno1 [Compound B15]
damage to the test plants (test plants): little or no damage

Cc1cc(-c2c(OC(=O)C(C)C)c3nccnc3[nH]c2=O)on1 [Compound B16]
damage to the test plants (test plants): little or no damage

Cc1cc(-c2c(OC(=O)C(C)(C)C)c3nccnc3[nH]c2=O)on1 [Compound B17]
damage to the test plants (test plants): little or no damage

Cc1cc(-c2c(OC(=O)C(C)C)c3nccnc3[nH]c2=O)[nH]n1 [Compound B18]
damage to the test plants (test plants): little or no damage

Cc1cc(-c2c(OC(=O)C(C)(C)C)c3nccnc3[nH]c2=O)[nH]n1 [Compound B19]
damage to the test plants (test plants): little or no damage

CCn1c(=O)c(-c2cc(C)no2)c(OC(=O)C(C)(C)C)c2nccnc21 [Compound B20]
damage to the test plants (test plants): little or no damage

CCn1c(=O)c(-c2cc(C)no2)c(OC(=O)C(C)C)c2nccnc21 [Compound B21]
damage to the test plants (test plants): little or no damage

CCOc1c(-c2cc(C)n(CC)n2)c(=O)n(CC)c2nccnc12 [Compound B22]
damage to the test plants (test plants): little or no damage

Cc1cc(-c2c(O)c3nccnc3[nH]c2=O)n2nc(C)cc2n1 [Compound C1]
damage to the test plants (test plants): little or no damage

Cc1cc(-c2c(OC(=O)C(C)(C)C)c3nccnc3[nH]c2=O)n2nc(C)cc2n1 [Compound C2]
damage to the test plants (test plants): little or no damage

Cc1cc(-c2c(OC(=O)C(C)(C)C)c3nccnc3n(C)c2=O)n2nc(C)cc2n1 [Compound C3]
damage to the test plants (test plants): little or no damage

Source: US8338598B2, “Herbicidal pyrido[2,3-B]pyrazines and their use as herbicides” (Syngenta Limited, priority 2008, dated 2012)
